Here are results for 1 molecule from ChEMBL document CHEMBL3102795, “Discovery of 1-oxa-4,9-diazaspiro[5.5]undecane-based trisubstituted urea derivatives as highly potent soluble epoxide hydrolase inhibitors and orally active drug candidates for treating of chronic kidney diseases” (Bioorg Med Chem Lett, 2014).

≈ marks a conversion by molar mass, not a printed value. Calls of active or inactive are those of the source. No cut-off for these calls is given here.

The nature of data set [1]: Total clearance in rat at 0.2 mg/kg, iv. The following applies: in vivo. Type of data set: ADME, organism-based. Further details: dose 0.2 mg/kg, route intravenous.
Data set [2] is described as follows: AUC (0 to infinity) in rat at 0.2 mg/kg, iv. Type of data set: ADME, organism-based. Details: time infinity, dose 0.2 mg/kg, route intravenous. The following applies: plasma.
The nature of data set [3]: AUC (0 to infinity) in rat at 1 mg/kg, po. Type of data set: ADME, organism-based. Further details: time infinity, dose 1 mg/kg, route oral. The following applies: plasma.
In data set [4] the target is T1, Bifunctional epoxide hydrolase 2 (Rattus norvegicus, UniProt P80299).
T1 sequence (P80299 whole entry): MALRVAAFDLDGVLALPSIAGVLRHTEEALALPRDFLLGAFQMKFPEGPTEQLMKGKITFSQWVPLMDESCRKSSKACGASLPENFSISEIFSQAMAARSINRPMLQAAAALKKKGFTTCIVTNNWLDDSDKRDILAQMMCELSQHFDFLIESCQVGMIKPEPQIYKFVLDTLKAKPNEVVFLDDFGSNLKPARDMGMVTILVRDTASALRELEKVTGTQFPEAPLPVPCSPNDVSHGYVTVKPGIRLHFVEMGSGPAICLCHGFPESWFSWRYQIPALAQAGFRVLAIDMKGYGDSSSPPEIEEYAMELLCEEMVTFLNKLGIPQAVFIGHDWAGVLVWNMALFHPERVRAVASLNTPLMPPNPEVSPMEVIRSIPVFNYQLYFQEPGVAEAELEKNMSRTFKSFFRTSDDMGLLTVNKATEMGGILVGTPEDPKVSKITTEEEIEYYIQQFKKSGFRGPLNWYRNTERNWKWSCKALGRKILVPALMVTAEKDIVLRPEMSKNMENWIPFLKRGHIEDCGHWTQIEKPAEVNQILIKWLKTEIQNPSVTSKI
Description: Inhibition of rat recombinant sEH expressed in baculovirus infected insect Sf9 cells using cyano(6-methoxynaphthalen-2-yl)methyl trans-[(3-phenyloxiran-2-yl)methyl] carbonate as substrate preincubated for 30 mins followed by substrate addition measured after 20 to 45 mins by fluorescence assay.

A short description of data set [5]: Volume of distribution at steady state in rat at 0.2 mg/kg, iv. Details: dose 0.2 mg/kg, route intravenous. Type of data set: ADME, organism-based. The following applies: in vivo, read-out: Vdss.
Data set [6] can be described thus: Oral bioavailability in rat at 1 mg/kg. Format: ADME, organism-based. The settings on record: in vivo.
The subject of data set [7] is Liver microsome. Description: Metabolic stability in human liver microsomes measured per mg of protein. Format: ADME.
Data set [8] is described as follows: Cmax in rat at 1 mg/kg, po. The following applies: in vivo. Details: dose 1 mg/kg, route oral. Type of data set: ADME, organism-based.
The nature of data set [9]: Half life in rat at 0.2 mg/kg, iv. Type of data set: ADME, organism-based. The settings on record: in vivo. Details: dose 0.2 mg/kg, route intravenous.
The nature of data set [10]: Drug uptake in rat at 0.2 mg/kg, iv at 5 mins. Type of data set: ADME, organism-based. Further details: dose 0.2 mg/kg, route intravenous. The following applies: in vivo, read-out: Drug uptake.
Data set [11] deals with Rattus norvegicus. Description: Reduction of serum creatinine level in rat anti-glomerular basement membrane glomerulonephritis model at 30 mg/kg, po qd administered for 3 weeks. Format: functional, organism-based. Details: dose 30 mg/kg.
Data set [12] can be described thus: Solubility of the compound in simulated gastric fluid compliant with Japanese pharmacopeia. Format: ADME.
A short description of data set [13]: Solubility of the compound in simulated intestinal fluid compliant with Japanese pharmacopeia. Format: ADME.
Data set [14] is described as follows: Tmax in rat at 1 mg/kg, po. Format: ADME, organism-based. Details: dose 1 mg/kg, route oral. The settings on record: in vivo.
Data set [15] concerns the target T2, Bifunctional epoxide hydrolase 2 (Homo sapiens, UniProt P34913).
T2 sequence (P34913 whole entry): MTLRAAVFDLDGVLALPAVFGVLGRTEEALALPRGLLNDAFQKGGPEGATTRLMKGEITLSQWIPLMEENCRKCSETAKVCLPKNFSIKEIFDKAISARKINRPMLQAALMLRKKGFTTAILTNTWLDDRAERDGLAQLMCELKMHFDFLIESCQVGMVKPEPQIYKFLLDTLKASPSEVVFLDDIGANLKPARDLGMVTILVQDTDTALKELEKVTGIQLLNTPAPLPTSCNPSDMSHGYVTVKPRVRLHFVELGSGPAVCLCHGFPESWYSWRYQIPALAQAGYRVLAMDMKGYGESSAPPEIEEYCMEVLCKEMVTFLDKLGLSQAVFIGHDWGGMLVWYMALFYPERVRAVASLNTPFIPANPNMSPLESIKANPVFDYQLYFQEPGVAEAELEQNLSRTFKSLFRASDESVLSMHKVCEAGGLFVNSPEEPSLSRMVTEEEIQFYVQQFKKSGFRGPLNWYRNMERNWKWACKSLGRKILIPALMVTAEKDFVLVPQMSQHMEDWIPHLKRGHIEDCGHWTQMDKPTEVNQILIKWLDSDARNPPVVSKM
The data set is described as follows: Inhibition of human recombinant sEH expressed in baculovirus infected insect Sf9 cells using cyano(6-methoxynaphthalen-2-yl)methyl trans-[(3-phenyloxiran-2-yl)methyl] carbonate as substrate preincubated for 30 mins followed by substrate addition measured after 20 to 45 mins by fluorescence assay.

Turning to `O=C(Nc1ccc(OC(F)(F)F)cc1)N1CCOC2(CCN(C(=O)c3ccccc3F)CC2)C1`, in [1], the clearance was 19.3 mL/min/kg. Also, the AUC(0-inf) in data set [2] stood at 173 ng·h/mL; in data set [3], 306 ng·h/mL. Besides, the IC50 in data set [4] turned out to be 9.3 nM; in data set [15], 1.1 nM. Moreover, the Vd in data set [5] was found to be 3.56 L/kg. Further, in data set [6], the bioavailability was 35.4%. The CLint in [7] turned out to be 30 µL/min/mg. In addition, the Cmax in [8] stood at 20.4 ng/mL. Further, the half-life in [9] is 2.63 h. Moreover, the concentration at 5 min in [10] is 71 ng/mL. Further, the outcome in [11] was Active. For the same molecule, the values for the solubility in data set [12] and in data set [13] were 71 µg/mL (≈ 147 µM) and 62 µg/mL (≈ 129 µM), respectively. Moreover, in data set [14], the Tmax is 1 h.
